Assay results from ChEMBL document CHEMBL3507680, “University of Dundee, Gates Library screen for HepG2 cell viability”.

Experiment: Human HepG2 cell viability assay in 384 well format
Format: toxicity, cell-based
Parameters: dose 125 nL, time 70.5 hour; cytotoxicity at 70.5 h: concentration not given beside the values
Conditions: HepG2 cells, read-out: Inhibition

Row | SMILES | cytotoxicity at 70.5 h [%]
1 | O=C(c1cnccn1)N1C[C@@H]2CN(Cc3cccnc3)CCO[C@@H]2C1 | 18.1
2 | Cn1c2ncccc2c(=O)n1CC(=O)NCCc1c(F)cccc1F | -7.19
3 | Cc1noc([C@H]2C[C@H]3OCC[C@H]3N(Cc3ccc(F)cc3)C2)n1 | -8.23
4 | CCCn1ncc2c(C(=O)Nc3n[nH]c(SC)n3)cc(C3CC3)nc21 | 5.71
5 | CCc1ccc(C(=O)N2CCC(c3nncn3CC)CC2)o1 | -6.22
6 | CCN1CCCC(C)(C(=O)NCCc2n[nH]c(=O)[nH]2)C1 (configuration not stated) | -3.84
7 | c1ccc(CN2CCCC(c3nccnc3-n3ccnc3)C2)cc1 (configuration not stated) | -17.5
8 | CC1CN(C(=O)NCCCn2cncn2)CCO1 (configuration not stated) | -1.85
9 | Cc1nc(CNC(=O)C(C)(C)c2ccc(F)cc2)no1 | 0.937
10 | CCC(CC)c1nnc(NC(=O)NC(C)Cn2cccn2)s1 (configuration not stated) | 12.3
11 | O=C1NCCN(CC2CC2)C12CCN(Cc1ccc3c(c1)OCO3)CC2 | 41.2
12 | CN(C)C(=O)CN1C[C@H]2CN(Cc3cccc(F)c3)C(=O)[C@H]2C1 | -5.27
13 | COCC(=O)N1CCCC1c1cc(Nc2nnc(C)s2)nc(C)n1 (configuration not stated) | 21.4
14 | Oc1cccc2ccc(CN3CCC4(CCNCC4)C3)nc12 | -4.99
15 | CC(C)c1nnc2n1CCN(CC(=O)N1CCc3ccccc3C1)C2 | 11.4
16 | COCCN1CCC2(COCCN(Cc3ccc4c(c3)OCO4)C2)C1 (configuration not stated) | -9.54
17 | CC(C)CN(Cc1ccc(-n2cncn2)cc1)Cc1ccccn1 | -10.8
18 | O=C(Cc1ccsc1)NC1CCc2c(ccc(=O)n2CC2CC2)C1 (configuration not stated) | 12
19 | CC(C)CN1Cc2c(C(=O)NC3CC3)ncn2-c2ccccc2S1(=O)=O | -15.8
20 | CCC(C)N(Cc1ccncc1)Cc1cccc(Cn2cccn2)c1 (configuration not stated) | -6.76
21 | Cc1noc(C)c1CS(=O)(=O)C(C)C(=O)N(C)c1ccccc1 (configuration not stated) | -111

Row | SMILES | cytotoxicity at 70.5 h [%]
22 | NC(=O)NCCC(=O)NCc1cccnc1N1CCc2ccccc2C1 | -11.6
23 | CN1CCc2[nH]nc(C(=O)N3CCCC4(CN(C)C(=O)O4)C3)c2C1 (configuration not stated) | -6.4
24 | Cn1ccnc1CN1CCN(CC(O)c2ccc(F)cc2)CC1 (configuration not stated) | -3.86
25 | CCc1nc2n(n1)CC(Nc1cc(C)nc3ncnn13)CC2 (configuration not stated) | -5.27
26 | COc1cc(C)nc(N2CCN(Cc3nccn3C)CC2)n1 | 0.0501
27 | Cc1cc(NC(=O)CN2CCCC2c2c(C)nn(C)c2C)on1 (configuration not stated) | -2.37
28 | CCOC1COC2(CCN(Cc3cccc(C#N)c3)CC2)C1 (configuration not stated) | -8.68
29 | Cc1cnn(CC2CCCN2C(=O)c2c(F)cccc2Cl)c1 (configuration not stated) | 0.266
30 | O=C(NCc1cccc(F)c1)N1CCC2(CC(=O)N(c3ccsc3)C2)C1 (configuration not stated) | 4.74
31 | CC(C)N1[C@H](Cn2cncn2)C[C@@H]2CNCC[C@@H]21 | 0.707
32 | Cc1nn(C(C)C)c(C)c1NC(=O)c1ccc(F)cc1 | -2.59
33 | Cn1[nH]c(C2CCC2)c(-c2ccc3c(c2)OCO3)c1=N | -3.82
34 | COC(=O)Cc1cccc(NC(=O)Cc2ccon2)c1 | 23.7
35 | C[C@@H](NC(=O)c1cnccn1)c1c(-c2ccc(F)cc2)noc1C(=O)O | -1.48
36 | COc1cccc(CNC(=O)c2cc(C)nc(N3CCCCC3)n2)c1 | -9.69
37 | CCn1cnnc1CNC(=O)N1CCN(C(C)C)CC1 | 26
38 | Cc1ccc(-c2ccccc2CC2CNCCNC2=O)c(C)c1 (configuration not stated) | 31.4
39 | CCC(=O)N1CCC2(CC1)CC(CC(N)=O)c1ccc(F)cc12 (configuration not stated) | -7.49
40 | Cc1ccc2c(n1)N(C)CCN(Cc1cnn(C)c1)C2 | -2.39
41 | c1cc(CN2CCC(c3ccc4c(c3)OCO4)CC2)ccn1 | -1.06
42 | CCn1ncc(Nc2[nH]cnc3nc(C)nc2-3)c1C | -6.65

Row | SMILES | cytotoxicity at 70.5 h [%]
43 | Cc1ccc(Cl)c2ccc(NC(CO)CO)nc12 | 0.998
44 | CCN1CC(C(=O)N2CCN(c3cnn(C)c(=O)c3)CC2)CCC1=O (configuration not stated) | -9.64
45 | CC(=O)NCCCSC1CCN(c2c(F)cccc2F)C1=O (configuration not stated) | 22.9
46 | CC(C)(C)OC(=O)NC(C)(C)c1noc(CN2CCCCC2)n1 | -3.07
47 | COCc1cc(CNC(=O)c2cccc3c2OCC3)n[nH]1 | -5.24
48 | Cn1ncc(C(=O)OCC2CC(=O)N(c3ccccc3)C2)c1C(F)F (configuration not stated) | -9.29
49 | O=C(CCn1cc(Cl)cn1)Nc1nncs1 | 15.8
50 | CC[C@H](C)[C@H](N)C(=O)N1CC(=O)c2sc(NC3CCCCC3)nc2C1 | 3.97
51 | CCc1nnc(CN2CCC(N3CCN(CC)C3=O)CC2)o1 | -16.5
52 | CSc1sc2c(O)cc(=O)[nH]c2c1C(N)=O | 11.3
53 | CN1C(=O)CCCC12CCCN(C(=O)c1cccc(C(F)(F)F)c1)C2 (configuration not stated) | -6.35
54 | O=c1nc(CNc2ccccc2)[nH]n1Cc1ccccc1 | -13.1
55 | Cc1cnn(CCNCc2csc(-c3cccs3)n2)c1 | -4.79
56 | CN(C)CCNCCC(c1ccccc1)C1CCOC(C)(C)C1 (configuration not stated) | -6.43
57 | O=C(NCCc1nccs1)C(c1ccccc1)n1cnnn1 (configuration not stated) | -4.94
58 | CC(C)C(=O)N1CCN(S(=O)(=O)C2CC2)CC2(CC(=O)N(C)C2)C1 (configuration not stated) | -6.71
59 | CN1CCN(Cc2cn3c(n2)CNCC3)CC1 | 23.1
60 | COc1cccc(N2CCN(C(=O)c3noc4c3CCCCC4)CC2)c1 | -4.22
61 | CS(=O)(=O)NCCC(=O)N1Cc2cnc(-c3ccccc3)nc2C1 | 2.41
62 | Cc1cnn(CCNCc2nc(Cc3ccccc3)no2)c1 | -5.53
63 | COCCNS(=O)(=O)c1cccc(CSC)c1 | 18.6

Row | SMILES | cytotoxicity at 70.5 h [%]
64 | CCCN(CCO)S(=O)(=O)c1ccc2[nH]c(=O)[nH]c2c1 | 1.55
65 | CCN(Cc1ccc2c(c1)OCO2)C(=O)NC(C)Cn1cccn1 (configuration not stated) | -12.9
66 | CCC(C)(CC)NC(=O)COc1nn(C)c2nc(C)cc(C)c12 | 14.2
67 | COc1ccc(/C=C/CN2CCN(c3ncccc3C(N)=O)CC2)cc1 | -1.81
68 | CC(=O)NCc1cc2n(n1)CCN(Cc1ccccc1OC(F)(F)F)C2 | -3.35
69 | COCCN1CCC(Cc2cncc(-c3ccc(C(=O)O)cc3)n2)C1 (configuration not stated) | -11.8
70 | COc1ccc(CN2CCC3(CCCN(c4ncc(F)cn4)C3)C2)cc1 (configuration not stated) | 50.3
71 | Cc1cc(C2CCCN(CCCS(C)(=O)=O)C2)n[nH]1 (configuration not stated) | -4.49
72 | COCC1CC2(CCN(C(=O)C3CCSCC3)CC2)CO1 (configuration not stated) | 8.61
73 | CC(C)CCN1CCN(Cc2nc(C(C)C)no2)CC1 | -0.333
74 | Cc1nc(C(NC(=O)CC(F)(F)F)c2ccc(Cl)cc2)no1 (configuration not stated) | -2.37
75 | CC1CCN(C(=O)c2ccnc(-n3cncn3)c2)c2ccccc21 (configuration not stated) | 13.2
76 | COc1ccccc1N1CCN(C(=O)NC(C)c2nncn2C)CC1 (configuration not stated) | -5.73
77 | Cc1nn(C)c(C)c1CCC(=O)N(C)Cc1ccc2nsnc2c1 | -4.18
78 | O=C(Nc1nccs1)NC1CCOc2ccccc21 (configuration not stated) | -1.72
79 | Cc1cccc2cc(C(=O)N3CCC(F)(F)CC3)n(C)c12 | 32.7
80 | O=C(NCC1CC(=O)N(CCc2ccccc2)C1)c1ccc[nH]1 (configuration not stated) | -8.75
81 | c1cnc(-c2nc(CN3CCn4c(nnc4C4CC4)C3)cs2)nc1 | -9.61
82 | Cc1nn(C)cc1-c1cc(C(F)(F)F)nc(NC2CCN(C)CC2)n1 | -4.19
